Data reported in US11596150B2, “Long chain glycolipids useful to avoid perishing or microbial contamination of materials” (IMD NATURAL SOLUTIONS GMBH, priority 2011, dated 2023).
Values after ≈ are worked out from the molar mass of the structure shown. Read-outs that look alike come from different tables or passages of the source.

Columns and labels:
[1] = test system: Mucor plumbeus (MUCL49355); assay: MIC determination in microtiter plates (non-pathogenic microorganisms); assay type: cell-based
[2] = test system: Aspergillus niger (ATCC 16404); assay: as above; assay type: cell-based; conditions: Aspergillus niger (ATCC16404); 48 h; read-out: MIC values after 48 h
[3] = test system: Clostridium sporogenes; assay: MIC / growth inhibition after 48 h (Example 9); conditions: ATCC3584, 48 h, read-out: MIC values after 48 h
[4] = test system: Staphylococcus aureus (ATCC 6538P); assay: microbe, parasite or virus in culture; assay type: cell-based; conditions: ATCC6538P, Mueller-Hinton Broth, 1% DMSO, 20 hours at 36° C., read-out: MIC S. aureus
[5] = test system: Bacillus subtilis (ATCC6633); assay: MIC determination in microtiter plates (non-pathogenic microorganisms); assay type: cell-based; conditions: 48 h, read-out: MIC values after 48 h
[6] = test system: Dekkera bruxellensis (DSM70726); assay: as above; assay type: cell-based; conditions: Brettanomyces bruxellensis, 48 h, read-out: MIC values after 48 h
[7] = test system: Zygosaccharomyces bailii (DSM70492); assay: as above; assay type: cell-based; conditions: 48 h, read-out: MIC values after 48 h
[8] = test system: Candida albicans; assay: MIC / growth inhibition after 48 h (Example 9); conditions: ATCC10231, 48 h, read-out: MIC values after 48 h
[9] = test system: Corynebacterium variabile (DSM20132); assay: MIC determination in microtiter plates (non-pathogenic microorganisms); assay type: cell-based; conditions: 48 h, read-out: MIC values after 48 h
[10] = test system: Zygosaccharomyces florentinus (DSM70506); assay: as above; assay type: cell-based; conditions: Zygotorulaspora florentina, 48 h, read-out: MIC values after 48 h
[11] = test system: Clostridium perfringens (ATCC 13124); assay: microbe, parasite or virus in culture; assay type: cell-based; conditions: ATCC13124, 48 h
[12] = test system: Bacillus cereus; assay: MIC / growth inhibition after 48 h (Example 9); conditions: ATCC11778, 48 h, read-out: MIC values after 48 h
[13] = test system: Saccharomyces cerevisiae (HT10); assay: MIC determination in microtiter plates (non-pathogenic microorganisms); assay type: cell-based; conditions: 48 h, read-out: MIC values after 48 h
[14] = test system: Listeria monocytogenes (ATCC19111); assay: MIC after 48 h (Example 9); conditions: ATCC19111, 48 h, read-out: MIC values after 48 h
[15] = test system: Zygosaccharomyces bisporus (DSM70415); assay: MIC determination in microtiter plates (non-pathogenic microorganisms); assay type: cell-based; conditions: 48 h, read-out: MIC values after 48 h
[16] = test system: Aspergillus fumigatus (ATCC 1028); assay: microbe, parasite or virus in culture; assay type: cell-based
[17] = test system: Pyricularia oryzae (DSM62938); assay: microbe, parasite or virus in culture; assay type: cell-based; conditions: DSM62938, 48 h, read-out: MIC values after 48 h
[18] = test system: Dekkera naardenensis (DSM70743); assay: MIC determination in microtiter plates (non-pathogenic microorganisms); assay type: cell-based; conditions: Brettanomyces naardenensis, 48 h, read-out: MIC values after 48 h
[19] = test system: Talaromyces luteus (CBS348.51); assay: MIC after 48 h (Example 9); assay type: cell-based; conditions: Ascospirella lutea
[20] = test system: Enterococcus faecalis (ATCC19433); assay: MIC after 48 h (Example 9); conditions: ATCC19433, 48 h, read-out: MIC values after 48 h
[21] = test system: Byssochlamys fulva (DSM62097); assay: MIC determination in microtiter plates (non-pathogenic microorganisms); assay type: cell-based; conditions: Paecilomyces fulvus, 48 h, read-out: MIC values after 48 h
[22] = test system: Zygosaccharomyces rouxii (NCYC381); assay: as above; assay type: cell-based; conditions: 48 h, read-out: MIC values after 48 h
[23] = test system: Listeria welshimeri (DSM15452); assay: as above; assay type: cell-based; conditions: 48 h, read-out: MIC values after 48 h
Excerpt: Various nonpathogenic bacteria, yeasts, and filamentous fungi were obtained from public culture collections and maintained as recommended in the catalogues and protocols of the respective institutions. Saccharomyces cerevisiae strain HT10 and Mucor plumbeus were originally taken from the culture collection of InterMed Discovery GmbH but deposited with MUCL as reference strains for antimicrobial susceptibility testing. These strains were maintained under liquid nitrogen and, prior to the screening, on YMG agar. Prior to the screening the yeast and bacterial strains were grown over night on SDB (medium 1), except for Bacillus subtilis, which was grown on YMG agar (medium 2) for 1 week to prepare spore suspensions. Likewise, the filamentous fungi were pre-incubated on YMG agar for 2-3 weeks to create inoculum for spore suspensions. […] For all experiments, freshly prepared spore suspensions were used. The initial concentrations for the bioassays were adjusted to 1×10^5 CFU (i.e. cells or spores, respectively) per ml. […] To adjust the initial titer prior to the bioassays, the CFU per ml was determined under the microscope using a counting chamber type “Brand Neubauer improved”; BRAND GmbH & Co KG, Wertheim, Germany). This microscopic control also served as means for assessment of the viability of the cells. […]

[24] = test system: Lactobacillus plantarum (DSM 12028); assay: as above; assay type: cell-based; conditions: Lactiplantibacillus plantarum; Lactobacillus plantarum (DSM12028); 48 h; read-out: MIC values after 48 h
[25] = test system: Propionibacterium acnes (ATCC6919); assay: MIC after 48 h (Example 9); assay type: cell-based; conditions: Cutibacterium acnes
[26] = M. plumbeus (MUCL49355), SDB medium, day not given (Table 19)
[27] = M. plumbeus (MUCL49355), SDB medium, day not printed (first line of Table 19)
[28] = M. plumbeus (MUCL49355), SDB medium, day 2
[29] = M. plumbeus (MUCL49355), SDB medium, day 7
[30] = M. plumbeus (MUCL49355), SDB medium, day 16
[31] = M. plumbeus (MUCL49355), SDB medium, day 28
[32] = read-out: MIC values after 48 h
[33] = Aspergillus fumigatus (ATCC1028), 48 h, read-out: MIC values after 48 h
[34] = Aspergillus fumigatus, ATCC1028, 72 h, Potato Dextrose Broth, 1% DMSO, 3 days at 28° C., read-out: MIC A. fumigatus
[35] = Mucor plumbeus (MUCL49355), 48 h, read-out: MIC values after 48 h

| Compound | MIC [1, 26] | MIC [1, 27] | MIC [2] [µg/mL] | MIC [5] [µg/mL] | MIC [6] [µg/mL] | MIC [7] [µg/mL] | MIC [9] [µg/mL] | MIC [10] [µg/mL] | MIC [13] [µg/mL] | MIC [15] [µg/mL] | MIC [17] [µg/mL] | MIC [18] [µg/mL] | MIC [19] [µg/mL] | MIC [21] [µg/mL] | MIC [22] [µg/mL] | MIC [24] [µg/mL] | MIC [1, 35] [µg/mL] | other results |
| --- | --- | --- | --- | --- | --- | --- | --- | --- | --- | --- | --- | --- | --- | --- | --- | --- | --- | --- |
| CCCCC(CCCC(O)C(O)CCCCCCCCCCCCCCC(O)C(=O)O)OC1OCC(O)C(O)C1OC1OCC(O)C(O)C1OC1OC(COC(C)=O)C(OC(C)=O)C(O)C1O (centres unmarked) [[6], Glykenin IIIB or Glykenin IIIC] | 25 | 25 |  |  |  |  |  |  |  |  |  |  |  |  |  |  |  |  |
| O=C(O)c1ccccc1 [benzoic acid, reference compound] |  |  |  |  |  |  |  |  |  |  |  |  |  |  |  |  |  | MIC [1, 28]: 1000; MIC [1, 29]: 1000; MIC [1, 30]: >1000; MIC [1, 31]: >1000 |
| CCCCC(CCCC(O)C(O)CCCCCCCCCCCCCCC(O)C(=O)O)OC1OCC(O)C(O)C1OC1OCC(O)C(O)C1OC1OC(COC(=O)CC(C)C)C(O)C(O)C1O (centres unmarked) [[12]] | 100 | 50 | 6.3 (≈ 6.49 µM) | 1.6 (≈ 1.65 µM) | 6.3 (≈ 6.49 µM) | 6.3 (≈ 6.49 µM) | < 0.8 | 6.3 (≈ 6.49 µM) | 6.3 (≈ 6.49 µM) | 12.5 (≈ 12.9 µM) | 25 (≈ 25.7 µM) | 6.3 (≈ 6.49 µM) | 25 (≈ 25.7 µM) | 6.3 (≈ 6.49 µM) | 6.3 (≈ 6.49 µM) | 25 (≈ 25.7 µM) | 6.3 (≈ 6.49 µM) | MIC [3]: 50 µg/mL (≈ 51.5 µM); MIC [4]: 200 µg/mL (≈ 206 µM); MIC [8]: 25 µg/mL (≈ 25.7 µM); MIC ([11]; read-out: MIC C. perfringens): 60 µg/mL (≈ 61.8 µM); MIC [11, 32]: 60 µg/mL (≈ 61.8 µM); MIC [12]: 12.5 µg/mL (≈ 12.9 µM); MIC [14]: 50 µg/mL (≈ 51.5 µM); MIC [16, 33]: 20 µg/mL (≈ 20.6 µM); MIC [16, 34]: 20 µg/mL (≈ 20.6 µM); MIC [20]: 50 µg/mL (≈ 51.5 µM); MIC [23]: 25 µg/mL (≈ 25.7 µM) |
| CCCCCCC(CCCC(O)CCCCCCCCCCCCCC(O)C(=O)O)OC1OCC(O)C(O)C1OC1OCC(OC(C)=O)C(O)C1OC1OC(COC(C)=O)C(O)C(O)C1O (centres unmarked) [[10], Antibiotic F 19848A] | 50 | 12.5 |  |  |  |  |  |  |  |  |  |  |  |  |  |  |  |  |
| CCCCC(CCCC(O)C(O)CCCCCCCCCCCCCCC(O)C(=O)O)OC1OCC(O)C(O)C1OC1OCC(OC(C)=O)C(O)C1OC1OC(COC(=O)CC(C)C)C(O)C(O)C1O (centres unmarked) [[1], 2,17,18-trihydroxy-hexacosanoic acid 22-O-[6-isovaleroyl-hexapyranosyl-(1→2)-5-acetyl-pentapyranosyl-(1→2)-penta-pyranosid]-] | 50 | 25 | 3.1 (≈ 3.06 µM) | 3.1 (≈ 3.06 µM) | 6.3 (≈ 6.22 µM) | 6.3 (≈ 6.22 µM) | 1.6 (≈ 1.58 µM) | 6.3 (≈ 6.22 µM) | 6.3 (≈ 6.22 µM) | 12.5 (≈ 12.3 µM) | 6 (≈ 5.92 µM) | 6.3 (≈ 6.22 µM) | 12.5 (≈ 12.3 µM) | 3.1 (≈ 3.06 µM) | 6.3 (≈ 6.22 µM) | 25 (≈ 24.7 µM) | 6.3 (≈ 6.22 µM) | MIC [4]: 200 µg/mL (≈ 197 µM); MIC [8]: 30 µg/mL (≈ 29.6 µM); MIC ([11]; read-out: MIC C. perfringens): 60 µg/mL (≈ 59.2 µM); MIC [11, 32]: 60 µg/mL (≈ 59.2 µM); MIC [16, 33]: 20 µg/mL (≈ 19.7 µM); MIC [16, 34]: 20 µg/mL (≈ 19.7 µM); MIC [25]: 100 µg/mL (≈ 98.7 µM) |
| CCCCC(CCCC(O)C(O)CCCCCCCCCCCCCCC(O)C(=O)O)OC1OCC(O)C(O)C1OC1OCC(O)C(O)C1OC1OC(COC(=O)CC(C)C)C(OC(C)=O)C(O)C1O (centres unmarked) [[13]] | 25 | 12.5 | 12.5 (≈ 12.3 µM) | 3.1 (≈ 3.06 µM) | 6.3 (≈ 6.22 µM) | 6.3 (≈ 6.22 µM) | 1.6 (≈ 1.58 µM) | 12.5 (≈ 12.3 µM) | 12.5 (≈ 12.3 µM) | 25 (≈ 24.7 µM) | 6 (≈ 5.92 µM) | 12.5 (≈ 12.3 µM) | 25 (≈ 24.7 µM) | 3.1 (≈ 3.06 µM) | 12.5 (≈ 12.3 µM) | 25 (≈ 24.7 µM) | 12.5 (≈ 12.3 µM) |  |
| CCCCC(CCCC(O)C(O)CCCCCCCCCCCCCCC(O)C(=O)O)OC1OCC(O)C(O)C1OC1OCC(O)C(O)C1OC1OC(CO)C(O)C(O)C1O (centres unmarked) [[16], Glykenin DGC or Glykenin DGB] | >100 | >100 | 25 (≈ 28.2 µM) | 3.1 (≈ 3.49 µM) | > 100 | 25 (≈ 28.2 µM) | 1.6 (≈ 1.8 µM) | > 100 | > 100 | > 100 | 25 (≈ 28.2 µM) | 50 (≈ 56.4 µM) | 50 (≈ 56.4 µM) | 6.3 (≈ 7.1 µM) | 100 (≈ 113 µM) | 50 (≈ 56.4 µM) | > 100 |  |
| C/C=C/C=C/C(=O)O [sorbic acid, reference compound] |  |  |  |  |  |  |  |  |  |  |  |  |  |  |  |  |  | MIC [1, 28]: 250; MIC [1, 29]: 500; MIC [1, 30]: 1000; MIC [1, 31]: 1000 |
| CCCCC(CCCC(O)C(O)CCCCCCCCCCCCCCC(O)C(=O)O)OC1OCC(O)C(O)C1OC1OCC(OC(C)=O)C(O)C1OC1OC(CO)C(O)C(O)C1O (centres unmarked) [[14]] | >100 | 50 | 50 (≈ 53.8 µM) | 1.6 (≈ 1.72 µM) | 50 (≈ 53.8 µM) | 25 (≈ 26.9 µM) | 1.6 (≈ 1.72 µM) | 50 (≈ 53.8 µM) | 50 (≈ 53.8 µM) | 50 (≈ 53.8 µM) | 25 (≈ 26.9 µM) | 25 (≈ 26.9 µM) | 50 (≈ 53.8 µM) |  | 25 (≈ 26.9 µM) | 25 (≈ 26.9 µM) | 50 (≈ 53.8 µM) |  |
| CCCCCCC(CCCC(O)CCCCCCCCCCCCCC(O)C(=O)O)OC1OCC(O)C(O)C1OC1OCC(OC(C)=O)C(O)C1OC1OC(COC(=O)CC(C)C)C(O)C(O)C1O (centres unmarked) [[18]] | >100 | 25 |  |  |  |  |  |  |  |  |  |  |  |  |  |  |  |  |
